The values that follow come from patent US12398154B2, “Azaquinazoline pan-KRas inhibitors” (Mirati Therapeutics, Inc., priority 2020, dated 2025).

Common to all, as to experiment: biochemical
Experiment [1] deals with KRas G12D (Homo sapiens, UniProt P01116, G12D).
Procedure: (§1) The ability of a compound to bind to KRas was measured using a TR-FRET displacement assay. […] After a 60-minute incubation at room temperature, the reaction was measured using a BMG LABTECH CLARIO star Plus via TR-FRET. […] The POC values were fit to a 4-parameter IC50 equation and the IC50 value reported.
The target of experiment [2] is KRas G12R (Homo sapiens, UniProt P01116, G12R).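 Note: TR-FRET displacement assay of compound binding to KRas, read after one hour at room temperature, potency from a four-parameter fit of percent-of-control values.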
Chain of KRas G12R (P01116 1-169 isoform P01116-2 G12R): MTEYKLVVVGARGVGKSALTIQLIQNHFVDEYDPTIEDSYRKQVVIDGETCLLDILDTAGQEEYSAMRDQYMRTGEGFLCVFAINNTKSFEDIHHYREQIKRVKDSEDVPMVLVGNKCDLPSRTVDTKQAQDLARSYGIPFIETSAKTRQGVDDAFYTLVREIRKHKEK
Procedure: as §1
The target in experiment [3] is KRas G12V (Homo sapiens, UniProt P01116, G12V).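 Note: KRas binding measured by TR-FRET displacement at room temperature, IC50 fitted from percent of control values.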
Chain of KRas G12V (P01116 1-169 isoform P01116-2 G12V): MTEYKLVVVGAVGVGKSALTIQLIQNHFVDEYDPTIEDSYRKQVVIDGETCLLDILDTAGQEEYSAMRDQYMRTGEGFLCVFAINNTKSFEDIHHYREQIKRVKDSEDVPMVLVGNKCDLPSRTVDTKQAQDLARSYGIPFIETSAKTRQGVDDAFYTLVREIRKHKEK
Procedure: as §1

Where only a bound is given, the exact number is not on record here.

Broadly, the IC50 is the concentration that gives 50% inhibition.

Chain of KRas G12D (P01116 1-169 isoform P01116-2 G12D): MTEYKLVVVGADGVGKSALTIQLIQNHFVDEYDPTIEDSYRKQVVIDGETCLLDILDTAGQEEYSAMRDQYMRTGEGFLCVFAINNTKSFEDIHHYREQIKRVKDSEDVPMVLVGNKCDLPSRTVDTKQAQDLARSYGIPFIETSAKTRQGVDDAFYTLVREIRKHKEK

On to `CCc1cccc2cccc(-c3ncc4c(N5CCCC(C)(O)C5)nc(OCC56CCCN5CCC6)nc4c3F)c12` (stereo not drawn) [Example 54, 1-(7-(8-ethylnaphthalen-1-yl)-8-fluoro-2-((hexahydro-1H-pyrrolizin-7a-yl)methoxy)pyrido[4,3-d]pyrimidin-4-yl)-3-methylpiperidin-3-ol], for which the IC50 in experiment [1] turned out to be 0.162 µM; in experiment [2], 0.528 µM; in experiment [3] it was 0.321 µM.
As for `CC1(O)CCCN(c2nc(OCC34CCCN3CCC4)nc3c(F)c(-c4cccc5cccc(C#N)c45)ncc23)C1` (stereo not drawn) [Example 56, 8-(8-fluoro-2-((hexahydro-1H-pyrrolizin-7a-yl)methoxy)-4-(3-hydroxy-3-methylpiperidin-1-yl)pyrido[4,3-d]pyrimidin-7-yl)-1-naphthonitrile], the values for the IC50 in experiment [1], in experiment [2] and in experiment [3] were 2.61 µM, 8.34 µM and 3.76 µM, respectively.
For `CC1(O)CCCN(c2nc(OCC34CCCN3CCC4)nc3c(F)c(-c4cccc5cccnc45)ncc23)C1` (stereo not drawn) [Example 66] the same measures were 26.9 µM, 67.8 µM and 44.5 µM.
The matching figures for `CC1(O)CCCN(c2nc(OCC34CCCN3CCC4)nc3c(F)c(-c4cccc5scnc45)ncc23)C1` (stereo not drawn) [Example 68, 1-(7-(benzo[d]thiazol-4-yl)-8-fluoro-2-((hexahydro-1H-pyrrolizin-7a-yl)methoxy)pyrido[4,3-d]pyrimidin-4-yl)-3-methylpiperidin-3-ol]: 11.6 µM, 27.6 µM and 17 µM.
With `CC1(O)CCCN(c2nc(OCC34CCCN3CCC4)nc3c(F)c(-c4cccc5ccccc45)ncc23)C1` (stereo not drawn) [Example 69, 1-(8-fluoro-2-((hexahydro-1H-pyrrolizin-7a-yl)methoxy)-7-(naphthalen-1-yl)pyrido[4,3-d]pyrimidin-4-yl)-3-methylpiperidin-3-ol], the IC50 in experiment [1] amounted to 2.09 µM; in experiment [2], 4.17 µM; in experiment [3] it was 2.73 µM.
The matching figures for `O=C1NCCC2(CCCN(c3nc(OCC45CCCN4CCC5)nc4c(F)c(-c5cccc6cccc(F)c56)ncc34)C2)N1` (stereo not drawn) [Example 72, 8-(8-fluoro-7-(8-fluoronaphthalen-1-yl)-2-((tetrahydro-1H-pyrrolizin-7a(5H)-yl)methoxy)pyrido[4,3-d]pyrimidin-4-yl)-1,3,8-triazaspiro[5.5]undecan-2-one]: 14 µM, 14 µM and 10.8 µM.
The matching figures for `OC1CC2CC(C1)N(c1nc(OCC34CCCN3CCC4)nc3c(F)c(-c4cccc5cccc(F)c45)ncc13)C2` (stereo not drawn) [Example 76, 6-(8-fluoro-7-(8-fluoronaphthalen-1-yl)-2-((hexahydro-1H-pyrrolizin-7a-yl)methoxy)pyrido[4,3-d]pyrimidin-4-yl)-6-azabicyclo[3.2.1]octan-3-ol]: 15.5 µM, 8.87 µM and 3.15 µM.
The matching figures for `CN(Cc1cccnc1N)c1nc(OCC23CCCN2CCC3)nc2c(F)c(-c3cccc4cccc(F)c34)ncc12` [Example 79, N-((2-aminopyridin-3-yl)methyl)-8-fluoro-7-(8-fluoronaphthalen-1-yl)-N-methyl-2-((tetrahydro-1H-pyrrolizin-7a(5H)-yl)methoxy)pyrido[4,3-d]pyrimidin-4-amine]: 15.5 µM, 0.65 µM and 0.539 µM.
Take `Fc1c(-c2cccc3cccc(Cl)c23)ncc2c(N3CCCC(c4c[nH]nn4)C3)nc(OCC34CCCN3CCC4)nc12` (stereo not drawn) [Example 108, 4-(3-(1H-1,2,3-triazol-4-yl)piperidin-1-yl)-7-(8-chloronaphthalen-1-yl)-8-fluoro-2-((tetrahydro-1H-pyrrolizin-7a(5H)-yl)methoxy)pyrido[4,3-d]pyrimidine]: the IC50 in experiment [1] worked out at 19.7 µM; in experiment [2] it was 4.19 µM; in experiment [3], 8.1 µM.
On to `CC1(O)CCCN(c2nc(OCC34CCCN3CCC4)nc3c(F)c(-c4cc(O)cc5ccccc45)ncc23)C1` (stereo not drawn) [Example 151], for which the figures for the IC50 in experiment [1], in experiment [2] and in experiment [3] were 0.012 µM, 0.009 µM and 0.008 µM, respectively.
The matching figures for `CCc1c(F)ccc2cc(O)cc(-c3ncc4c(N(C)Cc5cn[nH]c5)nc(OC[C@@]56CCCN5C[C@H](F)C6)nc4c3F)c12` [Example 163, 4-(4-(((1H-pyrazol-4-yl)methyl)(methyl)amino)-8-fluoro-2-(((2R,7aS)-2-fluorohexahydro-1H-pyrrolizin-7a-yl)methoxy)pyrido[4,3-d]pyrimidin-7-yl)-5-ethyl-6-fluoronaphthalen-2-ol]: 0.095 µM, 0.017 µM and 0.014 µM.
The matching figures for `CN1CCC[C@H]1COc1nc(N2CCOCC2)c2cnc(-c3cc(O)cc4ccccc34)c(F)c2n1` [Example 195, (S)-4-(8-fluoro-2-((1-methylpyrrolidin-2-yl)methoxy)-4-morpholinopyrido[4,3-d]pyrimidin-7-yl)naphthalen-2-ol]: 16.6 µM, 1.71 µM and 4.91 µM.
For `CN(CCC(N)=O)c1nc(OCC23CCCN2CCC3)nc2c(F)c(-c3cccc4cccc(F)c34)ncc12` [Example 226, 3-((8-fluoro-7-(8-fluoronaphthalen-1-yl)-2-((hexahydro-1H-pyrrolizin-7a-yl)methoxy)pyrido[4,3-d]pyrimidin-4-yl)(methyl)amino)propanamide] the same measures were 6.07 µM, 51.9 µM and 14.1 µM.
Regarding `Nc1n[nH]c(CCNc2nc(OCC34CCCN3CCC4)nc3c(F)c(-c4cccc5cccc(F)c45)ncc23)n1` [Example 238, N-(2-(3-amino-1H-1,2,4-triazol-5-yl)ethyl)-8-fluoro-7-(8-fluoronaphthalen-1-yl)-2-((hexahydro-1H-pyrrolizin-7a-yl)methoxy)pyrido[4,3-d]pyrimidin-4-amine], the figures for the IC50 in experiment [1], in experiment [2] and in experiment [3] were no less than 100 µM, 9.18 µM and 19.3 µM, respectively.
On to `NC(=O)NC1CCCN(c2nc(OCC34CCCN3CCC4)nc3c(F)c(-c4cccc5cccc(F)c45)ncc23)C1` (stereo not drawn) [Example 241, 1-(1-(8-fluoro-7-(8-fluoronaphthalen-1-yl)-2-((hexahydro-1H-pyrrolizin-7a-yl)methoxy)pyrido[4,3-d]pyrimidin-4-yl)piperidin-3-yl)urea], for which the IC50 was 17.2 µM in experiment [1], 8.62 µM in experiment [2] and 13.6 µM in experiment [3].
For `Fc1c(-c2cccc3cccc(F)c23)ncc2c(N3CCCn4nccc4C3)nc(OCC34CCCN3CCC4)nc12` [Example 245, 4-(7,8-dihydro-4H-pyrazolo[1,5-a][1,4]diazepin-5(6H)-yl)-8-fluoro-7-(8-fluoronaphthalen-1-yl)-2-((hexahydro-1H-pyrrolizin-7a-yl)methoxy)pyrido[4,3-d]pyrimidine] the same measures were 2.99 µM, 9.83 µM and 11.7 µM.
The matching figures for `Fc1c(-c2cccc3cccc(F)c23)ncc2c(N3CCCc4ncccc4C3)nc(OCC34CCCN3CCC4)nc12` [Example 246, 6-(8-fluoro-7-(8-fluoronaphthalen-1-yl)-2-((hexahydro-1H-pyrrolizin-7a-yl)methoxy)pyrido[4,3-d]pyrimidin-4-yl)-6,7,8,9-tetrahydro-5H-pyrido[3,2-c]azepine]: 6.41 µM, 11.3 µM and 22.1 µM.
`NS(=O)(=O)OC1CCCN(c2nc(OCC34CCCN3CCC4)nc3c(F)c(-c4cccc5cccc(F)c45)ncc23)C1` (stereo not drawn) [Example 248, 1-(8-fluoro-7-(8-fluoronaphthalen-1-yl)-2-((tetrahydro-1H-pyrrolizin-7a(5H)-yl)methoxy)pyrido[4,3-d]pyrimidin-4-yl)piperidin-3-yl sulfamate]: the IC50 in experiment [1] was 6.81 µM; in experiment [2], 10.5 µM; in experiment [3], 9.78 µM.
For `Cc1cc2n(n1)CCCN(c1nc(OCC34CCCN3CCC4)nc3c(F)c(-c4cccc5cccc(F)c45)ncc13)C2` [Example 254, 8-fluoro-7-(8-fluoronaphthalen-1-yl)-2-((hexahydro-1H-pyrrolizin-7a-yl)methoxy)-4-(2-methyl-7,8-dihydro-4H-pyrazolo[1,5-a][1,4]diazepin-5(6H)-yl)pyrido[4,3-d]pyrimidine] the same measures were 2.84 µM, 7.91 µM and 10.8 µM.
For `OC1CN(c2nc(OCC34CCCN3CCC4)nc3c(F)c(-c4cccc5cccc(F)c45)ncc23)Cc2ccnn2C1` (stereo not drawn) [Example 255, 5-(8-fluoro-7-(8-fluoronaphthalen-1-yl)-2-((hexahydro-1H-pyrrolizin-7a-yl)methoxy)pyrido[4,3-d]pyrimidin-4-yl)-5,6,7,8-tetrahydro-4H-pyrazolo[1,5-a][1,4]diazepin-7-ol] the same measures were 6.23 µM, 15.1 µM and 11 µM.
The matching figures for `CN(C)c1cc2n(n1)CCCN(c1nc(OCC34CCCN3CCC4)nc3c(F)c(-c4cccc5cccc(F)c45)ncc13)C2` [Example 264, 5-(8-fluoro-7-(8-fluoronaphthalen-1-yl)-2-((hexahydro-1H-pyrrolizin-7a-yl)methoxy)pyrido[4,3-d]pyrimidin-4-yl)-N,N-dimethyl-5,6,7,8-tetrahydro-4H-pyrazolo[1,5-a][1,4]diazepin-2-amine]: 8.16 µM, 9.86 µM and 13.6 µM.
As to `O=C1CC2(CCCCN(c3nc(OCC45CCCN4CCC5)nc4c(F)c(-c5cccc6cccc(F)c56)ncc34)C2)N1` (stereo not drawn) [Example 266, 6-(8-fluoro-7-(8-fluoronaphthalen-1-yl)-2-((hexahydro-1H-pyrrolizin-7a-yl)methoxy)pyrido[4,3-d]pyrimidin-4-yl)-1,6-diazaspiro[3.6]decan-2-one], the IC50 in experiment [1] worked out at 6.06 µM; in experiment [2] it was 13.9 µM; in experiment [3], 5.25 µM.
